Test results: patent publication US7119105B2, “Methods for treating neurodegenerative disorders using aspartyl protease inhibitors” (The Regents of the University of California, priority 1997, dated 2006)

Tests used:
Assay type in all cases: cell-based, rat
[1] = tested on: phosphorylated tau fragment; test: Phosphorylated tau fragments in entorhinohippocampal slice cultures (immunoblot); details: six days; ZPAD 20 μM, CEL5-172 10 μM, EA-1 1 μM; vs control
Procedure: Briefly, the caudal pole of the cerebral hemisphere containing the entorhinal cortex and hippocampus were harvested from brains of 6–7 days old Sprague-Dawley rat pups under sterile condition. 400 μm horizontal entorhinohippocampal sections cut vertical to the long axes of hippocampus were obtained using a McIlwain tissue chopper in a cutting medium consisting of MEM (with Earle's salts, Gibco), 25 mM HEPES, 10 mM Tris Base, 10 mM Glucose, and 3 mM MgCl2 (pH 7.2). Brain tissue explants were then planted onto 30 mm cell culture inserts (Illicell-CM, Millipore, Bedford, Mass.) that were placed in 6 well culture trays with 1 mL of growth medium (MEM with Hank's salts, Gibco, 20% horse serum, 3 mM glutamine, 25 mM HEPES, 5 mM NaHCO3, 25 mM glucose, 0.5 mM ascorbate, 2 mM CaCl2, 2.5 mM MgCl2, 0.5 mg/L insulin, and penicillin, pH 7.2; Bi, et al., J. Comp. Neuro., 401, 382–394 (1998). The cultures were incubated at 35° C. with a 5% CO2-enriched atmosphere and fed every other day until use.
For western blot, entorhinohippocampal explants were collected and sonicated in 10 mM Tris-HCl buffer (pH 7.4) containing 0.32 M sucrose, 2 mM EDTA, 2 mM EGTA, and 0.1 mM leupeptin. […] Immunoblots were scanned, and the digitized images were quantitatively analyzed by densitometry using the NIH Image analysis system program. […]

[2] = tested on: native (unphosphorylated) tau; test: Native tau isoforms and 29 kDa fragment in hippocampal slice cultures, tau 1 Western blot; details: ZPAD six-day treatment, tau 1 antibody
Procedure: (§1) Organotypic hippocampal cultures were prepared using the technique of Stoppini, et al. (J. Neurosci. Meth., 37:173–182 (1991)). Briefly, hippocampi were harvested from brains of 9–11 days old Sprague-Dawley rat pups under sterile condition. Horizontal sections vertical to the long axis of hippocampus were cut at 400 μm and collected in a cutting medium consisting of MEM (with Earle's salts, Gibco), 25 mM HEPES, 10 mM Tris Base, 10 mM Glucose, and 3 mM MgCl2 (pH 7.2). Slices were positioned onto 30 mm cell culture inserts (Millicell-CM, Millipore, Bedford, Mass.) that were placed in 6 well culture trays with 1 ml of growth medium (MEM with Hank's salts, Gibco, 20% horse serum, 3 mM glutamine, 25 mM HEPES, 5 mM NaHCO3, 25 mM glucose, 0.5 mM ascorbate, 2 mM CaCl2, 2.5 mM MgCl2, 0.5 mg/l insulin, and penicillin, pH 7.2; 9). […]
(§2) Experiments were carried out using a yoked design in which one of the six culture trays was always used as a control and values for experimentally treated slices were expressed as percents of the same plate control. […]
(§3) Hippocampal slices were collected and sonicated in 10 mM Tris-HCl buffer (pH 7.4) containing 0.32 M sucrose, 2 mM EDTA, 2 mM EGTA, and 0.1 mM leupeptin. […] Immunoblots were scanned and the digitized images were quantitatively analyzed by densitometry using the NIH Image analysis system program.

[3] = tested on: cathepsin D isoforms; test: Cathepsin D isoforms in hippocampal slice cultures, Western blot; details: ZPAD alone
Procedure: as §1, §2, §3

[4] = tested on: 29 kDa APP fragment; test: APP fragment in entorhinohippocampal slice cultures (immunoblot, anti-C APP643-695); details: six days; ZPAD 20 μM, CEL5-172 10 μM; vs control
Procedure: Organotypic entorhinohippocampal cultures were prepared using the technique of Stoppini, et al., J. Neurosci. Methods, 37, 173–182 (1991). Briefly, the caudal pole of the cerebral hemisphere containing the entorhinal cortex and hippocampus were harvested from brains of 6–7 days old Sprague-Dawley rat pups under sterile condition. 400 μm horizontal entorhinohippocampal sections cut vertical to the long axes of hippocampus were obtained using a McIlwain tissue chopper in a cutting medium consisting of MEM (with Earle's salts, Gibco), 25 mM HEPES, 10 mM Tris Base, 10 mM Glucose, and 3 mM MgCl2 (pH 7.2). […]
as §3, with “For western blot, entorhinohippocampal explants” for “Hippocampal slices”, “scanned,” for “scanned”, “program. […]” for “program.”

[5] = tested on: hyperphosphorylated tau fragments (tau 29); test: Hyperphosphorylated tau fragments (tau 29) in hippocampal slice cultures, AT8 Western blot
Procedure: Organotypic hippocampal cultures were prepared using the technique of Stoppini, et al. (J. Neurosci. Meth., 37:173–182 (1991)). Briefly, hippocampi were harvested from brains of 9–11 days old Sprague-Dawley rat pups under sterile condition. Horizontal sections vertical to the long axis of hippocampus were cut at 400 μm and collected in a cutting medium consisting of MEM (with Earle's salts, Gibco), 25 mM HEPES, 10 mM Tris Base, 10 mM Glucose, and 3 mM MgCl2 (pH 7.2). Slices were positioned onto 30 mm cell culture inserts (Millicell-CM, Millipore, Bedford, Mass.) that were placed in 6 well culture trays with 1 ml of growth medium (MEM with Hank's salts, Gibco, 20% horse serum, 3 mM glutamine, 25 mM HEPES, 5 mM NaHCO3, 25 mM glucose, 0.5 mM ascorbate, 2 mM CaCl2, 2.5 mM MgCl2, 0.5 mg/l insulin, and penicillin, pH 7.2; 9). The cultures were incubated at 35° C. with a 5% CO2-enriched atmosphere with medium changed every other day until use. Incubations were carried out for 14 days before the start of experiments. This period is sufficient for the slices to take on a variety of adult characteristics (Bahr, J Neurosci Res., 42:294–305 (1995); and Muller, et al., Dev. Brain Res., 71:93–100 (1993)).
Experiments were carried out using a yoked design in which one of the six culture trays was always used as a control and values for experimentally treated slices were expressed as percents of the same plate control. Hippocampal slice cultures were exposed to medium containing one of three cathepsin D inhibitors (see, below) or to ‘ZPAD’ (N-CBZ-L-phenylalanyl-L-alanine-diazomethylketone), a selective inhibitor of cathepsins B and L (Green, et al., J. Biol. Chem., 256:1923–1928 (1981); Richardson, et al., J. Cell Biol., 107:2097–2107 (1988); and Shaw, et al., Biochem. J., 186:385–390 (1980)). […]
as §3

N-CBZ-L-phenylalanyl-L-alanine-diazomethylketone [ZPAD]
concentration of phosphorylated tau fragment, inhibitor by itself [1]: increases
increase in 29 kDa fragments [2]: 101%
reduction of native tau concentrations (four isoforms) from yoked controls ([2]; n=8): 19–32%
increase in heavy chain isoform of cathepsin D [3]: 70%
effect on procathepsin D ([3]; 6 days): modest increases
concentration of 29 kDa APP fragment, inhibitor by itself [4]: increases
effect on tau 29 concentration, inhibitor by itself ([5]; 2-6 days, CEL5 5 μM, EA-1 at concentrations tested, ZPAD 20 μM): increased
increase in the hyperphosphorylated tau fragment (mean±s.e.m.) ([5]; ZPAD 20 μM by itself, 6 days, vs yoked control, 5 experiments): 104±18%
time at which ZPAD induced increases in phosphorylated tau fragment appeared ([5]; earliest time point tested): 48 h
